Laboratory results taken from the supplement of paper PMC10307832.

What was measured:
Experiment in all cases: relative viability (nuclei count vs DMSO), 5 days (fraction); higher = more cells survive
NCI-H1993 = test system: NCI-H1993
Outline: (§1)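 Relative viability is defined as nuclei in treated wells over nuclei in vehicle wells. Duplicate plates were run and medians reported. Lung cancer cell lines in 1536-well plates were dosed by pin tool one day after seeding, with one drug or with a fixed anchor-drug dose plus five library-drug doses (not always all listed) in √10 steps, and nuclei were counted after 5 days.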

NCI-H1734 = test system: NCI-H1734
Outline: as §1

HCC-827 = test system: HCC-827
Outline: as §1

BEN = test system: BEN
Outline: as §1

HCC-366 = test system: HCC-366
Outline: as §1

NCI-H2009 = test system: NCI-H2009
Outline: as §1

SK-MES-1 = test system: SK-MES-1
Outline: as §1

NCI-H2405 = test system: NCI-H2405
Outline: as §1

LOU-NH91 = test system: LOU-NH91
Outline: as §1

HARA = test system: HARA
Outline: as §1

NCI-H2087 = test system: NCI-H2087
Outline: as §1

NCI-H1355 = test system: NCI-H1355
Outline: as §1

NCI-H2170 = test system: NCI-H2170
Outline: as §1

SK-LU-1 = test system: SK-LU-1
Outline: as §1

NCI-H661 = test system: NCI-H661
Outline: as §1

NCI-H1395 = test system: NCI-H1395
Outline: as §1

NCI-H2342 = test system: NCI-H2342
Outline: as §1

NCI-H647 = test system: NCI-H647
Outline: as §1

NCI-H1792 = test system: NCI-H1792
Outline: as §1

EKVX = test system: EKVX
Outline: as §1

NCI-H1437 = test system: NCI-H1437
Outline: as §1

NCI-H522 = test system: NCI-H522
Outline: as §1

COc1nc(C)cnc1NS(=O)(=O)c1cccnc1-c1ccc(-c2nnco2)cc1 [Zibotentan] + N=C(N)NC(=N)NCCc1ccccc1 [Phenformin] (partner 250 µM)
relative viability (NCI-H1993; first compound 0.08 µM): 0.461 | relative viability (NCI-H1993; first compound 0.253 µM): 0.541 | relative viability (NCI-H1993; first compound 0.8 µM): 0.46 | relative viability (NCI-H1993; first compound 2.53 µM): 0.514 | relative viability (NCI-H1734; first compound 0.08 µM): 0.361 | relative viability (NCI-H1734; first compound 0.253 µM): 0.396 | relative viability (NCI-H1734; first compound 0.8 µM): 0.381 | relative viability (NCI-H1734; first compound 2.53 µM): 0.492 | relative viability (HCC-827; first compound 0.08 µM): 0.429 | relative viability (HCC-827; first compound 0.253 µM): 0.399 | relative viability (HCC-827; first compound 0.8 µM): 0.387 | relative viability (HCC-827; first compound 2.53 µM): 0.421 | relative viability (BEN; first compound 0.08 µM): 0.278 | relative viability (BEN; first compound 0.253 µM): 0.261 | relative viability (BEN; first compound 0.8 µM): 0.241 | relative viability (BEN; first compound 2.53 µM): 0.264 | relative viability (HCC-366; first compound 0.08 µM): 0.692 | relative viability (HCC-366; first compound 0.253 µM): 0.62 | relative viability (HCC-366; first compound 0.8 µM): 0.577 | relative viability (HCC-366; first compound 2.53 µM): 0.603 | relative viability (NCI-H2009; first compound 0.08 µM): 0.494 | relative viability (NCI-H2009; first compound 0.253 µM): 0.469 | relative viability (NCI-H2009; first compound 0.8 µM): 0.542 | relative viability (NCI-H2009; first compound 2.53 µM): 0.481 | relative viability (SK-MES-1; first compound 0.08 µM): 0.714 | relative viability (SK-MES-1; first compound 0.253 µM): 0.612 | relative viability (SK-MES-1; first compound 0.8 µM): 0.678 | relative viability (SK-MES-1; first compound 2.53 µM): 0.692 | relative viability (NCI-H2405; first compound 0.08 µM): 0.422 | relative viability (NCI-H2405; first compound 0.253 µM): 0.39 | relative viability (NCI-H2405; first compound 0.8 µM): 0.436 | relative viability (NCI-H2405; first compound 2.53 µM): 0.439 | relative viability (LOU-NH91; first compound 0.08 µM): 0.712 | relative viability (LOU-NH91; first compound 0.253 µM): 0.683 | relative viability (LOU-NH91; first compound 0.8 µM): 0.798 | relative viability (LOU-NH91; first compound 2.53 µM): 0.819 | relative viability (HARA; first compound 0.08 µM): 0.462 | relative viability (HARA; first compound 0.253 µM): 0.429 | relative viability (HARA; first compound 0.8 µM): 0.217 | relative viability (HARA; first compound 2.53 µM): 0.489 | relative viability (NCI-H2087; first compound 0.08 µM): 0.423 | relative viability (NCI-H2087; first compound 0.253 µM): 0.428 | relative viability (NCI-H2087; first compound 0.8 µM): 0.54 | relative viability (NCI-H2087; first compound 2.53 µM): 0.486 | relative viability (NCI-H1355; first compound 0.08 µM): 0.465 | relative viability (NCI-H1355; first compound 0.253 µM): 0.414 | relative viability (NCI-H1355; first compound 0.8 µM): 0.449 | relative viability (NCI-H1355; first compound 2.53 µM): 0.491 | relative viability (NCI-H2170; first compound 0.08 µM): 0.451 | relative viability (NCI-H2170; first compound 0.253 µM): 0.389 | relative viability (NCI-H2170; first compound 0.8 µM): 0.436 | relative viability (NCI-H2170; first compound 2.53 µM): 0.39 | relative viability (SK-LU-1; first compound 0.08 µM): 0.53 | relative viability (SK-LU-1; first compound 0.253 µM): 0.463 | relative viability (SK-LU-1; first compound 0.8 µM): 0.501 | relative viability (SK-LU-1; first compound 2.53 µM): 0.503 | relative viability (NCI-H661; first compound 0.08 µM): 0.267 | relative viability (NCI-H661; first compound 0.253 µM): 0.252 | relative viability (NCI-H661; first compound 0.8 µM): 0.281 | relative viability (NCI-H661; first compound 2.53 µM): 0.296 | relative viability (NCI-H1395; first compound 0.08 µM): 0.43 | relative viability (NCI-H1395; first compound 0.253 µM): 0.45 | relative viability (NCI-H1395; first compound 0.8 µM): 0.464 | relative viability (NCI-H1395; first compound 2.53 µM): 0.486 | relative viability (NCI-H2342; first compound 0.08 µM): 0.782 | relative viability (NCI-H2342; first compound 0.253 µM): 0.595 | relative viability (NCI-H2342; first compound 0.8 µM): 0.603 | relative viability (NCI-H2342; first compound 2.53 µM): 0.559 | relative viability (NCI-H647; first compound 0.08 µM): 0.472 | relative viability (NCI-H647; first compound 0.253 µM): 0.512 | relative viability (NCI-H647; first compound 0.8 µM): 0.37 | relative viability (NCI-H647; first compound 2.53 µM): 0.531 | relative viability (NCI-H1792; first compound 0.08 µM): 0.424 | relative viability (NCI-H1792; first compound 0.253 µM): 0.244 | relative viability (NCI-H1792; first compound 0.8 µM): 0.355 | relative viability (NCI-H1792; first compound 2.53 µM): 0.259 | relative viability (EKVX; first compound 0.08 µM): 0.242 | relative viability (EKVX; first compound 0.253 µM): 0.238 | relative viability (EKVX; first compound 0.8 µM): 0.249 | relative viability (EKVX; first compound 2.53 µM): 0.245 | relative viability (NCI-H1437; first compound 0.08 µM): 0.308 | relative viability (NCI-H1437; first compound 0.253 µM): 0.297 | relative viability (NCI-H1437; first compound 0.8 µM): 0.297 | relative viability (NCI-H1437; first compound 2.53 µM): 0.347 | relative viability (NCI-H522; first compound 0.08 µM): 0.614 | relative viability (NCI-H522; first compound 0.253 µM): 0.648 | relative viability (NCI-H522; first compound 0.8 µM): 0.672 | relative viability (NCI-H522; first compound 2.53 µM): 0.723
